The values that follow come from patent US11401278B2, “Macrocyclic indole derivatives” (The Broad Institute, Inc., priority 2017, dated 2022).

Each structure is given as a SMILES string. Counter-ions that a name gives are not always drawn.

MCL-1, sequence (Q07820 whole entry K194A/K197A/R201A, looked up): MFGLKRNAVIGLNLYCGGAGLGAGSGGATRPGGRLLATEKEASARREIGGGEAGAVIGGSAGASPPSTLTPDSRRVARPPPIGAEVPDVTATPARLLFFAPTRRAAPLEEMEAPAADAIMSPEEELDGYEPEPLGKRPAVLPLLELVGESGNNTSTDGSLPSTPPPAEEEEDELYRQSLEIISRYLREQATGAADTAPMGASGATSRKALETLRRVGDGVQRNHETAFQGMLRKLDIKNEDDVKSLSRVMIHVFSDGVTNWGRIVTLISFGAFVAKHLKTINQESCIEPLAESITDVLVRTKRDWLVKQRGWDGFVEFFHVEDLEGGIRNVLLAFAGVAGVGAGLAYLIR
MCL1 protein, sequence (Q07820 whole entry): as the sequence (Q07820 whole entry K194A/K197A/R201A, looked up) above, with A194K, A197K, A201R counted along it

In the first experiment the target is MCL1 protein (Homo sapiens (Human), UniProt Q07820). The experiment in a line: PIxEL: protein-protein interaction in permeabilized cells by ELISA (Assay 5). It is filed as cell-based. The conditions noted are these: permeabilized RKO cells, Biotin-BIM peptide 0.2 μM, serum free; median. As for the experimental part:
PI×EL: Protein-Protein Interaction in Permeabilized Cells by ELISA
Most MCL1 protein molecules are localized at the mitochondria outer membrane and sequester pro-apoptotic proteins through binding of their BCL2 homology domain 3 (BH3 domain). MEB buffer (150 mM mannitol, 10 mM HEPES pH 7.5, 50 mM KCl, 20 μM EDTA, 20 μM EGTA, 5 mM potassium succinate, 0.1% protease-free BSA (SIGMA) with low dose digitonin (0.002%) permeabilizes plasma membrane while leaves live mitochondria, where MCL1 maintains its native localization and conformation. Unlike biophysical assays (e.g. TR-FRET) that use truncated recombinant MCL1 protein, this assay uses full length endogenous MCL1 protein at mitochondria outer membrane. It measures the interaction between MCL1 protein and biotinylated BIM BH3 peptide. Compounds can compete with BIM BH3 peptide to bind to MCL1 protein. This serum free assay measures the affinity between MCL1 protein and compound in permeabilized cells, therefore it is not affected by serum binding and cell permeability, and can measure the intrinsic compound affinity.
On day 1, RKO colon cancer cell line cells were plated at 0.8 million cells/ml, 100 μl/well in 96-well flat bottom TC plates (Corning). MCL1 antibody (Santa Cruz sc-12756) were diluted at 200 fold (final concentration 1 μg/ml) in carbonate buffer (Thermo Fisher Scientific, pH 9.6), and 50 μl of diluted antibody was added to each well of high bind ELISA plates (SARSTEDT). Each plate was tapped to make sure liquid covering entire bottom of wells and incubate at 37° C. overnight.
On the second day, MCL1 antibody was washed from ELISA plate. 250 μl Odyssey® Blocking Buffer (PBS) (Li-Cor) was added to each well, incubated at room temperature for at least 1 hour, then washed once with 250 μl 1×PBST. Plates with RKO cells were gently washed once with 100 μl/well PBS, once with 100 μl/well MEB buffer without digitonin, then 100 μl of MEB buffer with 0.002% digitonin was gently added to each well. Compounds were added with HP Tecan compound dispenser in 3-fold dilution series, highest dose 30 μM, 10-dose per compound in quadruplicates. Biotin-BIM peptide (synthesized by 21st Century) was added with HP Tecan compound dispenser at 0.2 μM immediately after the addition of compounds. Plates were rocked for 1 hour at room temperature. Then MEB buffer was aspirated and 50 μl of CHAPS buffer (50 mM Tris-Cl, pH 7.4, 150 mM NaCl, 1% CHAPS, 1 mM EDTA, 1 mM EGTA, cOmplete protease inhibitors (Roche), PhosSTOP (Roche)) was added to each well. Plates were rocked for 1 hour at 4° C., then 45 μl cell lysate from each well were transferred to ELISA plates coated with MCL1 antibody. Plates were incubated overnight in the cold room with rocking.
On the third day, ELISA plates were washed once with 250 μl 1×PBST. Streptavidin-poly-HRP (Thermo Fisher Scientific) was diluted to 20 ng/ml in Odyssey blocking buffer plus 0.05% Triton-100, and 100 μl was added to each well of the ELISA plate. Plates were incubated at room temperature for 1 hour with rocking, then washed with 100 μL 1×PBST for 3 times. Each SuperSignal ELISA Femto Maximum Sensitivity substrate was added to a 50-ml tube and mixed, then 100 μl of mixed substrate was added to each well. Plates were shaken for 1 minute then luminescence was measured by Envision plate reader […]. Signal of each well were normalized by no-compound control and no-cell control. IC50 was calculated using Graphic Pad PRISM software.
Turning to `CCc1c2c(nn1C)CN(CC)S(=O)(=O)CCCn1c(C(=O)O)c(CCCOc3cccc4cc(F)ccc34)c3ccc(Cl)c-2c31` (racemic) [Example 56, (rac)-4-chloro-3,14-diethyl-7-{3-[(6-fluoro-1-naphthyl)oxy]propyl}-2-methyl-11,12,14,15-tetrahydro-2H,10H-pyrazolo[3′,4′:4,5][1,2,8]thiadiazacycloundecino[6,7,8-hi]indole-8-carboxylic acid 13,13-dioxide], the half-maximal inhibitory concentration (IC50) came to 0.145 µM.

`CCc1c2c(nn1C)C(CCN1CCOCC1)N(C)S(=O)(=O)CCCn1c(C(=O)O)c(CCCOc3cccc4cc(F)ccc34)c3ccc(Cl)c-2c31` (racemic) [Example 73, (rac)-(4-chloro-3-ethyl-7-{3-[(6-fluoronaphthalen-1-yl)oxy]propyl}-2,14-dimethyl-15-[2-(morpholin-4-yl)ethyl]-13,13-dioxo-10,11,12,13,14,15-hexahydro-2H-13lambda^6-pyrazolo[3′,4′:4,5][1,2,8]thiadiazacycloundecino[6,7,8-hi]indole-8-carboxylic acid (Racemate 1)] displayed an IC50 of 0.0331 µM. `CCc1c2c(nn1C)CN(CC)S(=O)(=O)CCCn1c(C(=O)O)c(CCCOc3cccc4cc(F)ccc34)c3ccc(Cl)c-2c31` (single isomer, unassigned; enantiomer 1) [Example 57, (+)-4-chloro-3,14-diethyl-7-{3-[(6-fluoronaphthalen-1-yl)oxy]propyl}-2-methyl-13,13-dioxo-10,11,12,13,14,15-hexahydro-2H-13lambda^6-pyrazolo[3′,4′:4,5][1,2,8]thiadiazacycloundecino[6,7,8-hi]indole-8-carboxylic acid N-ethylethanamine Salt (Enantiomer 1)] registered an IC50 of 0.0748 µM. Molecule `CCc1c2c(nn1C)CN(C1CC1)S(=O)(=O)CCCn1c(C(=O)O)c(CCCOc3cccc4cc(F)ccc34)c3ccc(Cl)c-2c31` (single isomer, unassigned; enantiomer 1) [Example 54, (−)-4-chloro-14-cyclopropyl-3-ethyl-7-{3-[(6-fluoronaphthalen-1-yl)oxy]propyl}-2-methyl-13,13-dioxo-10,11,12,13,14,15-hexahydro-2H-13lambda^6-pyrazolo[3′,4′:4,5][1,2,8]thiadiazacycloundecino[6,7,8-hi]indole-8-carboxylic acid N-ethylethanamine Salt (Enantiomer 1)] had an IC50 of 0.36 µM.

The molecule `Cc1c2c(nn1C)CNS(=O)(=O)CCCn1c(C(=O)O)c(CCCOc3cccc4cc(F)ccc34)c3ccc(Cl)c-2c31` (single isomer, unassigned; enantiomer 1) [Example 51, 4-chloro-7-{3-[(6-fluoronaphthalen-1-yl)oxy]propyl}-2,3-dimethyl-13,13-dioxo-10,11,12,13,14,15-hexahydro-2H-13lambda^6-pyrazolo[3′,4′:4,5][1,2,8]thiadiazacycloundecino[6,7,8-hi]indole-8-carboxylic acid (Enantiomer 1)] gave an IC50 of 0.458 µM. The IC50 values of the last two molecules are within 1.5-fold of each other. The same measure, in the same setting: as for `Cc1c2c(nn1C)C(CCN1CCOCC1)N(C)S(=O)(=O)CCCn1c(C(=O)O)c(CCCOc3cccc4cc(F)ccc34)c3ccc(Cl)c-2c31` (racemic) [Example 48, (rac)-4-chloro-7-{3-[(6-fluoro-1-naphthyl)oxy]propyl}-2,3,14-trimethyl-15-(rac)-[2-(morpholin-4-yl)ethyl]-11,12,14,15-tetrahydro-2H,10H-pyrazolo[3′,4′:4,5][1,2,8]thiadiazacycloundecino[6,7,8-hi]indole-8-carboxylic acid 13,13-dioxide (Mixture of Stereoisomers)], the figure is 0.0299 µM; as for `CCc1c2c(nn1C)CN(C1CC1)S(=O)(=O)CCCn1c(C(=O)O)c(CCCOc3cccc4cc(F)ccc34)c3ccc(Cl)c-2c31` (racemic) [Example 53, (rac)-4-chloro-14-cyclopropyl-3-ethyl-7-{3-[(6-fluoro-1-naphthyl)oxy]propyl}-2-methyl-11,12,14,15-tetrahydro-2H,10H-pyrazolo[3′,4′:4,5][1,2,8]thiadiazacycloundecino[6,7,8-hi]indole-8-carboxylic acid 13,13-dioxide], 0.329 µM; as for `CCc1c2c(nn1C)C(CCC1CCOCC1)N(C)S(=O)(=O)CCCn1c(C(=O)O)c(CCCOc3cccc4cc(F)ccc34)c3ccc(Cl)c-2c31` (single isomer, unassigned; enantiomer 3) [Example 63, (+)-4-chloro-3-ethyl-7-{3-[(6-fluoronaphthalen-1-yl)oxy]propyl}-2,14-dimethyl-15-[2-(oxan-4-yl)ethyl]-13,13-dioxo-10,11,12,13,14,15-hexahydro-2H-13lambda^6-pyrazolo[3′,4′:4,5][1,2,8]thiadiazacycloundecino[6,7,8-hi]indole-8-carboxylic acid (Enantiomer 3)], 0.022 µM. In turn, `Cc1c2c(nn1C)CN(C1CC1)S(=O)(=O)CCCn1c(C(=O)O)c(CCCOc3cccc4ccccc34)c3ccc(Cl)c-2c31` [Example 40, (rac)-4-chloro-14-cyclopropyl-2,3-dimethyl-7-[3-(1-naphthyloxy)propyl]-11,12,14,15-tetrahydro-2H,10H-pyrazolo[3′,4′:4,5][1,2,8]thiadiazacycloundecino[6,7,8-hi]indole-8-carboxylic acid 13,13-dioxide] displayed a half-maximal inhibitory concentration (IC50) of 29.4 µM.

For another experiment, the target named is MCL-1 (Homo sapiens (Human), UniProt Q07820, K194A/K197A/R201A). Put plainly: Protein-compound interaction assay (SPR assay, Assay 8). The experiment is classed as binding. The following applies: immobilized MBP-MCL-1, 25° C., geometric mean. The text has this:
Assay 8 Protein-Compound Interaction Assay (SPR Assay)
The ability of the compounds described in this invention to bind to MCL-1 may be determined using surface plasmon resonance (SPR). This allows for the quantification of binding in terms of the equilibrium dissociation constant (KD [M]), as well as association and dissociation rate constants (kon [1/M 1/s] and koff [1/s], respectively). The measurements may be performed using Biacore® T200 or Biacore® S200 instruments (GE Healthcare).
For SPR measurements, recombinant MCL-1 (amino acids 173-321, N-terminal fused to Maltose Binding Protein (MBP) (SEQ ID 1) purchased from Beryllium (Bedford, Mass., USA)) was immobilized using standard amine coupling (Johnsson B et al, Anal Biochem. 1991 Nov. 1; 198(2):268-77). Briefly, carboxymethylated dextran biosensor chips (Series S Sensor Chip CMS, GE Healthcare) were activated with 1-ethyl-3-(3-dimethylaminopropyl)-carbodiimide hydrochloride (EDC) and N-hydroxysuccinimide (NHS) according to the supplier's instructions. MBP-MCL-1 was diluted in 1×PBS-P+ (GE Healthcare) and injected on the activated chip surface. Subsequently, a solution of 1 M ethanolamine-HCl (GE Healthcare) was injected to block unreacted groups, resulting in approximately 400-2500 response units (RU) of immobilized protein. A reference surface was generated by treatment with NHS-EDC and ethanolamine-HCl. Compounds were dissolved in 100% dimethylsulfoxide (DMSO) to a concentration of 10 mM and subsequently diluted in running buffer (1×PBS-P+ (GE Healthcare) [generated from PBS-P+ Buffer 10× (GE Healthcare): 0.2 M phosphate buffer with 27 mM KCl, 1.37 M NaCl and 0.5% Surfactant P20 (Tween 20).], 1% v/v DMSO). For SPR binding-measurements, serial dilutions of compound (eight dilution steps, typically ranging from 0.2 nM up to 1 μM) were injected over immobilized protein. […] Compounds were injected for 60 s followed by a dissociation time of up to 1000 s.
The double-referenced sensorgrams were fit to a simple reversible Langmuir 1:1 reaction mechanism as implemented in the Biacore® T200 and S200 evaluation software (T200 evaluation software version 2.0 and S200 evaluation software version 1.0, GE Healthcare).
Consider `CCNCC.CCc1c2c(nn1C)C(CCN1CCOCC1)N(C)S(=O)(=O)CCCn1c(C(=O)O)c(CCCOc3cccc4cc(F)ccc34)c3ccc(Cl)c-2c31` (single isomer, unassigned; enantiomer 2) [Example 76, 4-chloro-3-ethyl-7-{3-[(6-fluoronaphthalen-1-yl)oxy]propyl}-2,14-dimethyl-15-[2-(morpholin-4-yl)ethyl]-13,13-dioxo-10,11,12,13,14,15-hexahydro-2H-13lambda^6-pyrazolo[3′,4′:4,5][1,2,8]thiadiazacycloundecino[6,7,8-hi]indole-8-carboxylic acid-N-ethylethanamine Salt (Enantiomer 2)], for which the equilibrium dissociation constant (Kd) came out at 0.00034 µM, the “koff” value was determined as 0.0025 s⁻¹ and the association rate constant (kon) is 7.3e+06 M⁻¹ s⁻¹.
